Reference: article PMC7163917 (European journal of medicinal chemistry, 2020)
Read-outs that look alike come from different tables or passages of the source.

Columns and labels:
[1] = system: phosphorylation of ERK1/2 in PC12 cells; assay: NGF-induced phosphorylation of ERK1/2 in PC12 cells; format: cell-based; settings: 20 μM inhibitor, NGF 5 min
[2] = system: phosphorylation of Pyk2 in PC12 cells; assay: NGF-induced phosphorylation of Pyk2 in PC12 cells; format: cell-based; settings: 20 μM inhibitor, NGF 5 min
STEP [3] = molecular target: T1, STEP (Homo sapiens, UniProt P54829); assay: Ki measurement and Lineweaver-Burk kinetic analysis of STEP inhibition; format: biochemical; settings: pNPP, pH 6.0, 30 °C
T1 sequence (P54829 300-555 limits assumed): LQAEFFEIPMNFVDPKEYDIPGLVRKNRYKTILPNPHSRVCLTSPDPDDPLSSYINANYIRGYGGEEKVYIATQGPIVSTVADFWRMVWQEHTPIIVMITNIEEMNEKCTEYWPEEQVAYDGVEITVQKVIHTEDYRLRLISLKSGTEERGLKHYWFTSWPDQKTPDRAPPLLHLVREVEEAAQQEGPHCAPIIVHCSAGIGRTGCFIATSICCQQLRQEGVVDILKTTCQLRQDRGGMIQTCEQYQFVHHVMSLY

STEP F523A mutant = STEP F523A mutant (Homo sapiens, UniProt P54829, F547A)
STEP [4] = molecular target: T1, STEP; assay: STEP-catalyzed pNPP hydrolysis inhibition; format: biochemical; settings: ST3 analogs, removal of carboxyl and hydroxyl group

Sequence of STEP F523A mutant (P54829 282-563 F547A): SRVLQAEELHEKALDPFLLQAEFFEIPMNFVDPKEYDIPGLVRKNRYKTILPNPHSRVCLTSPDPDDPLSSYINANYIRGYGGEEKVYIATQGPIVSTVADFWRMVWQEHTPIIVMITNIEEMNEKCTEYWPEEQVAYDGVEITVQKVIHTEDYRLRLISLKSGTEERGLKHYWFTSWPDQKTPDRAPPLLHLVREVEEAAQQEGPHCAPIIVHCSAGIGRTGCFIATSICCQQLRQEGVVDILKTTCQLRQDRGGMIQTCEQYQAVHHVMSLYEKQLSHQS

| SMILES | effect of structural change on STEP inhibitory activity (STEP [4]) | effect on NGF-induced phosphorylation of ERK1/2 [1] | effect on NGF-induced phosphorylation of Pyk2 [2] | inhibition pattern (Lineweaver-Burk plot) (STEP [3]) | inhibitory activity in STEP F523A mutant compared with wild type (STEP F523A mutant) | inhibitory activity in STEP F523A mutant compared with wild type (STEP F523A mutant; STEP F523A mutant) |
| --- | --- | --- | --- | --- | --- | --- |
| O=C(O)c1cccc2c1NC(c1cccc(Br)c1)C1CC(Sc3ccccc3[N+](=O)[O-])C(Cl)C21 (centres unmarked) [ST2] |  | significantly increased | significantly increased | competitive | decreased |  |
| Cc1cc(C(=O)O)ccc1-c1ccc(C=C2C(=O)c3ccccc3C2=O)o1 [ST3–5] |  | significantly increased | significantly increased | competitive |  | decreased |
| O=C(O)c1cc(-c2ccc(/C=C3\Sc4ccccc4C3=O)o2)ccc1O [ST3] |  | significantly increased | significantly increased | competitive |  |  |
| O=C(O)c1cccc2c1NC(c1ccc(F)cc1)C1CC(Sc3ccccc3[N+](=O)[O-])C(Cl)C21 (centres unmarked) [ST2–5] |  | significantly increased | significantly increased | competitive | decreased |  |

Second part, led by results:

| effect of structural change on STEP inhibitory activity (STEP [4]) | SMILES | effect on NGF-induced phosphorylation of ERK1/2 [1] | effect on NGF-induced phosphorylation of Pyk2 [2] | inhibition pattern (Lineweaver-Burk plot) (STEP [3]) | inhibitory activity in STEP F523A mutant compared with wild type (STEP F523A mutant) | inhibitory activity in STEP F523A mutant compared with wild type (STEP F523A mutant; STEP F523A mutant) |
| --- | --- | --- | --- | --- | --- | --- |
| significantly decreased | Cc1cc(-c2ccc(/C=C3\Sc4ccccc4C3=O)o2)ccc1Cl [ST3–1] |  |  |  |  |  |
| significantly decreased | COC(=O)c1cccc(-c2ccc(/C=C3\Sc4ccccc4C3=O)o2)c1 [ST3–3] |  |  |  |  |  |
